As a reminder, the Kd is the concentration at which binding is half-saturated. The IC50 is the concentration that gives 50% inhibition.

The target in experiment [1] is T1, Bcl-2 (Homo sapiens, UniProt P10415). The following applies: reported by Wang and co-workers; read-out: equilibrium binding constant KD to Bcl-2 protein; cited from earlier work.
Experiment [2] concerns the target T1, Bcl-2. The experiment in a line: Homogeneous HTS assay for inhibitors of the Bcl-2 : Bak (72-87) BH3 domain interaction, fluorescence polarisation (2D-FIDA). Format: binding. The settings on record: fluorescence polarisation, fluorescent labelled Bak BH3 domain derived peptide; read-out: IC50 [μM] Bcl-2. In general terms: Fluorescence polarisation rises when a labelled molecule tumbles more slowly, as on binding a larger partner.

T1 sequence (P10415 whole entry, species assumed, the tested form may be a part): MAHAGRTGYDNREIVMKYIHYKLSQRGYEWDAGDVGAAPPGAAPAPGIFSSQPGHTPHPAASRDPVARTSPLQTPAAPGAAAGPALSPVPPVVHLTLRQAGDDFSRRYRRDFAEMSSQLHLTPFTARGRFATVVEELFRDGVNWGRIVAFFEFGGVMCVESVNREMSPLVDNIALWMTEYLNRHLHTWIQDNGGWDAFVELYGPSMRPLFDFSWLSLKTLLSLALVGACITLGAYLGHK

As for “BH3 domain derived peptide ligand, sequence GQVGRQLAIIGDDINR, fluorescently labelled for the assay”, the Kd with Bcl-2 [1] is about 0.2 µM.
Turning to `N=c1n(CCCOc2ccc(F)cc2)c2ccccc2n1Cc1ccc(N2CCN(Cc3cccc(Cl)c3)CC2)nc1` [Compound 54, 1-{6-[4-(3-Chloro-benzyl)-piperazin-1-yl]-pyridin-3-ylmethyl}-3-[3-(4-fluoro-phenoxy)-propyl]-1,3-dihydro-benzoimidazol-2-ylideneamine], the IC50 on Bcl-2 [2] was in the range of 11 to 100 µM.
On the same count and under the same terms, the value for `N=c1n(CCCOc2ccc(F)cc2)c2ccccc2n1Cc1ccc(CN2CCN(c3cccc(Cl)c3)CC2)cc1` [Compound 41, 1-{4-[4-(3-Chloro-phenyl)-piperazin-1-ylmethyl]-benzyl}-3-[3-(4-fluoro-phenoxy)-propyl]-1,3-dihydro-benzoimidazol-2-ylideneamine] was 11 to 100 µM.
With `N=c1n(CCCOc2cccc(C(=O)O)c2)c2ccccc2n1Cc1ccc(Br)cc1` [Compound 85, 3-{3-[3-(4-Bromo-benzyl)-2-imino-2,3-dihydro-benzoimidazol-1-yl]-propoxy}-benzoic acid], on Bcl-2 [2], the IC50 was in the range of 11 to 100 µM.
For `CS(=O)(=O)NC(=O)c1cccc(OCCCn2c(=N)n(Cc3cccc(Br)c3)c3ccccc32)c1` [Compound 86, N-(3-{3-[3-(3-Bromo-benzyl)-2-imino-2,3-dihydro-benzoimidazol-1-yl]-propoxy}-benzoyl)-methanesulfonamide], at Bcl-2 [2], the IC50 was under 10 µM.
`N=c1n(CCCOc2ccc(F)cc2)c2cc(F)ccc2n1Cc1ccc(Br)cc1` [Compound 61, 1-(4-Bromo-benzyl)-5-fluoro-3-[3-(4-fluoro-phenoxy)-propyl]-1,3-dihydro-benzoimidazol-2-ylideneamine]: on Bcl-2 [2], the IC50 lay within 11 to 100 µM.
Consider `N=c1n(Cc2ccccc2Cl)c2ccccc2n1CC(O)COc1ccccc1` (stereo not drawn) [Compound 102, 1-[3-(2-Chloro-benzyl)-2-imino-2,3-dihydro-benzoimidazol-1-yl]-3-phenoxy-propan-2-ol], for which, at Bcl-2 [2], the IC50 is over 100 µM.
As to `N=c1n(CCCOc2ccc(Br)cc2)c2ccccc2n1Cc1ccccc1` [Compound 87, 1-Benzyl-3-[3-(4-bromo-phenoxy)-propyl]-1,3-dihydro-benzoimidazol-2-ylideneamine], at Bcl-2 [2], the IC50 fell in the range of 11 to 100 µM.
`N=c1n(CCSc2ccccc2)c2ccccc2n1Cc1ccc(N2CCN(Cc3ccccc3-c3ccc(Cl)cc3)CC2)cc1` [Compound 33, 1-{4-[4-(4′-Chloro-biphenyl-2-ylmethyl)-piperazin-1-yl]-benzyl}-3-(2-phenylsulfanyl-ethyl)-1,3-dihydro-benzoimidazol-2-ylideneamine]: the IC50 on Bcl-2 [2] is under 10 µM.
On the same count and under the same terms, the value for `CCOC(=O)c1cccc(OCCCn2c(=N)n(Cc3ccccc3)c3ccccc32)c1` [Compound 71, 3-[3-(3-Benzyl-2-imino-2,3-dihydro-benzoimidazol-1-yl)-propoxy]-benzoic acid ethyl ester] was 11 to 100 µM; that for `N=c1n(Cc2ccccc2)c2ccccc2n1CC1CCOCC1` [Compound 4, 1-Benzyl-3-(tetrahydro-pyran-4-ylmethyl)-1,3-dihydro-benzoimidazol-2-ylideneamine] was over 100 µM.
As for `N=c1n(CCCOc2ccc(F)cc2)c2ccccc2n1Cc1csc(Cl)n1` [Compound 34, 1-(2-Chloro-thiazol-4-ylmethyl)-3-[3-(4-fluoro-phenoxy)-propyl]-1,3-dihydro-benzoimidazol-2-ylideneamine], the half-inhibitory concentration (IC50) on Bcl-2 [2] lay within 11 to 100 µM.
For the molecule `N=c1n(Cc2ccccc2)c2ccccc2n1Cc1ccc(N2CCN(Cc3ccccc3-c3ccccc3)CC2)cc1` [Compound 18, 1-Benzyl-3-[4-(4-biphenyl-2-ylmethyl-piperazin-1-yl)-benzyl]-1,3-dihydro-benzoimidazol-2-ylideneamine], at Bcl-2 [2], the IC50 is under 10 µM.
Still for that read-out and setting: the value for `N=c1n(Cc2ccccc2)c2ccccc2n1CC(O)c1ccccc1` (stereo not drawn) [Compound 92, 2-(3-Benzyl-2-imino-2,3-dihydro-benzoimidazol-1-yl)-1-phenyl-ethanol] was over 100 µM; that for `N=c1n(Cc2ccc(N3CCN(Cc4ccccc4-c4ccccc4)CC3)cc2)c2ccccc2n1CC(O)COc1ccc(F)cc1` (stereo not drawn) [Compound 83, 1-{3-[4-(4-Biphenyl-2-ylmethyl-piperazin-1-yl)-benzyl]-2-imino-2,3-dihydro-benzoimidazol-1-yl}-3-(4-fluoro-phenoxy)-propan-2-ol] was under 10 µM.
Regarding `N=c1n(CCCOc2ccccc2)c2ccccc2n1Cc1ccc(N2CCN(Cc3ccccc3-c3ccc(Cl)cc3)CC2)cc1` [Compound 30, 1-{4-[4-(4′-Chloro-biphenyl-2-ylmethyl)-piperazin-1-yl]-benzyl}-3-(3-phenoxy-propyl)-1,3-dihydro-benzoimidazol-2-ylideneamine], the IC50 on Bcl-2 [2] is under 10 µM.
In the case of `N=c1n(CCCOc2ccccc2)c2ccccc2n1Cc1ccc(N2CCN(Cc3ccccc3-c3ccccc3)CC2)cc1` [Compound 28, 1-[4-(4-Biphenyl-2-ylmethyl-piperazin-1-yl)-benzyl]-3-(3-phenoxy-propyl)-1,3-dihydro-benzoimidazol-2-ylideneamine], the IC50 on Bcl-2 [2] is under 10 µM.
Same read-out and setting: the value for `N=c1n(Cc2ccccc2)c2ccccc2n1Cc1ccncc1` [Compound 3, 1-Benzyl-3-pyridin-4-ylmethyl-1,3-dihydro-benzoimidazol-2-ylideneamine] was over 100 µM.
As for `N=c1n(Cc2ccccc2)c2ccccc2n1CC(O)COc1ccccc1` (stereo not drawn) [Compound 78, 1-(3-Benzyl-2-imino-2,3-dihydro-benzoimidazol-1-yl)-3-phenoxy-propan-2-ol], at Bcl-2 [2], the IC50 fell in the range of 11 to 100 µM.
Still for that read-out and setting: the value for `CCOC(=O)c1cccc(OCCCn2c(=N)n(Cc3cccc(Br)c3)c3ccccc32)c1` [Compound 68, 3-{3-[3-(3-Bromo-benzyl)-2-imino-2,3-dihydro-benzoimidazol-1-yl]-propoxy}-benzoic acid ethyl ester] was 11 to 100 µM.
Regarding `N=c1n(Cc2ccccc2)c2ccccc2n1CC(O)COc1ccc(Cl)cc1Cl` (stereo not drawn) [Compound 106, 1-(3-Benzyl-2-imino-2,3-dihydro-benzoimidazol-1-yl)-3-(2,4-dichloro-phenoxy)-propan-2-ol], the IC50 at Bcl-2 [2] was 11 to 100 µM.

(Values after patent US8759520B2, “Compounds for treating cancer” (Boehringer Ingelheim International GmbH, priority 2008, dated 2014).)
